From US20220257557A1, “PHARMACEUTICAL COMPOSITION FOR PREVENTING OR TREATING NEUROLOGICAL DISEASES” (GLACEUM INC., priority 2019, published 2022)

How the values were obtained:
[1] = test system: PON2 (Paraoxonase 2); experiment: Relative expression level of PON2 in liver of DIO mice (Western blot, relative to actin); type: in vivo, C57BL/6J DIO mice; conditions: 100 mg/kg orally once daily for 6 weeks, 60% fat diet
Protocol: 14-Week-old C57BL/6J DIO (Diet Induced Obesity) mice (The Jackson Laboratory, USA) were purchased. The normal control group was fed a 10% fat diet for 3 weeks, and the DIO control group was fed a 60% fat diet for 3 weeks. In addition, the Formula III-1 compound-administered group was fed a 60% fat diet for 3 weeks, and then 100 mg/kg of the compound of Formula III-1 was orally administered thereto once daily for 6 weeks.
The mice of the normal control group, the DIO control group and the Formula III-1 compound-administered group were euthanized, and the liver tissues were extracted therefrom, washed with a PBS solution containing PIC (protease inhibitor cocktail), sectioned to a size of 0.2 to 0.5 g, and stored at −196° C. until the experiment. […]
A lysis buffer (CelLytic™ Cell Lysis Reagent, Sigma-Aldrich Corp.) containing a protease inhibitor cocktail was added to the liver tissue which was then minced using a homogenizer, incubated at 0° C. for 30 minutes, and centrifuged at 14,000 rpm for 15 minutes at 4° C. to obtain the supernatant. The protein concentration was quantified using the Bradford method, and then the same amount of protein was separated by electrophoresis on 10% SDS-PAGE and transferred to a polyvinylidene difluoride membrane (PVDF; Pall Corporation, USA) in glycine-methanol buffer. […]

[2] = test system: BV2 cells; experiment: IL-1β, IL-6 and TNF-α mRNA expression after LPS (RT-PCR); type: cell-based; conditions: 3 h pretreatment (Table 3 amounts), LPS 1 μg/ml 6 h
Procedure, shortened: (§1)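 Cells pretreated with test compounds (cytotoxicity checked by MTT), then stimulated with 1 μg/ml LPS for 6 h. IL-1β, IL-6 and TNF-α mRNA levels measured by RT-PCR.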

[3] = test system: RAW264.7 cells; experiment: as above; type: cell-based; conditions: 3 h pretreatment (Table 3 amounts), LPS 1 μg/ml 6 h
Procedure, shortened: as §1

CCOc1ccc(C2COc3c(ccc4c3CCC(C)(C)O4)C2)c(O)c1 (centres unmarked) [Formula III-1, 2-(8,8-dimethyl-2,3,4,8,9,10-hexahydropyrano[2,3-f]chromen-3-yl)-5-ethoxyphenol]
higher: expression level of PON2 compared with DIO control group ([1]; FIG. 1) | expression level of PON2 compared with normal control group ([1]; FIG. 1b)
concentration-dependently decreased: mRNA expression level of IL-1β [2] | mRNA expression level of IL-6 [2] | mRNA expression level of TNF-α [2] | mRNA expression level of IL-1β [3] | mRNA expression level of IL-6 [3] | mRNA expression level of TNF-α [3]
